The values below come from patent US20090305955A1, “Cyclopeptide with Anti-Cancer Activity Derived from Collagen Type IV” (priority 2006, published 2009).

For assay [1], the system named is UACC-903 human melanoma cells. Description: In vitro proliferation test (Wst-1 reagent). The note with it: 48 hours. It is filed as cell-based. The procedure: FIG. 9: In vitro proliferation test for human melanoma cells UACC-903 in the presence of the cyclopeptide YSNSG (SEQ ID NO: 3). The UACC-903 cells were incubated for 48 hours in 24-well plates, with a control medium (negative control, white bar), a linear heptapeptide CNYYSNS (SEQ ID NO: 5) (positive control, black bar) or concentrations of cyclopeptide YSNSG (SEQ ID NO: 3) varying from 5 μM to 20 μm (grey bars).
B16F1 cells, a metastasic sub-line of B16 murine melanoma pulmonary cells (d-Dr M Grégoire, INSERM U419, Nantes, France) were cultivated in RPMI 1640 medium, supplemented with 5% foetal calf serum (FCS) in 25 cm^2 flasks (Nunclon, VWR Int, Strasbourg, France) in a humid atmosphere containing 5% CO2. UACC-903 cells, a melanoma cell line (Dr J Trent, Phoenix, Ariz.) were cultivated in DMEM medium containing 4.5 g/l glucose, supplemented with 5% FCS in 25 cm^2 flasks (Nunclon) in a moist atmosphere containing 5% CO2. HMEC-1 cells (human microvascular entothelial cells; E W Ades, Center for Disease Control and Prevention, Atlanta, Ga.) and HUVEC cells (human umbilical vein endothelial cells) were cultivated in endothelial cell growth medium (ECGM) supplemented with ECGS/H at 0.4% (by weight), 2% (by volume) foetal calf serum, epidermal growth factor (EGF) 10 ng/ml, 1 μg/ml of hydrocortisone, 50 ng/ml of amphotericin B and 50 μg/ml of gentamicin.
Cell proliferation was determined using the reagent Wst-1 following the manufacturer's instructions. This reagent contains a tetrazolium salt which is reduced by mitochondrial oxido-reductases and allows the proliferation and viability of cells to be evaluated. Its reduction gives rise to a soluble formazan derivative which is yellow in colour. Before reaching confluence, the cells were washed twice with a saline solution buffered with phosphate (phosphate buffered saline; PBS) to remove SVF residues and incubated for 48 hours in DMEM medium, in the presence or absence of synthetic peptides at concentrations of 0 to 20 μM. The medium was recovered then centrifuged at 500 g for 10 min at 4° C. to remove cell debris. The protein contents of the medium obtained was determined using Bradford's method using SAB as the reference.

Assay [2] relates to B16F1 murine melanoma cells. Description: Measurement of in vivo tumour growth, pre-incubated B16F1 cells injected s.c. The arrangement: species or system C57BL6 mice. The note with it: day 20; for in vivo tumour growth: B16F1 cells pre-incubated 15 minutes with 20 μM peptide, s.c. in C57BL6 mice. The procedure:
FIG. 16: In vivo tumour growth in the presence of YSNSG (SEQ ID NO: 3) cyclopeptide. B16F1 cells were incubated for 15 minutes with a control medium (negative control, white diamonds), with the linear heptapeptide CNYYSNS (SEQ ID NO: 5) (20 μM) (positive control, black diamonds) or with the cyclopeptide YSNSG (SEQ ID NO: 3) at a concentration of 20 μM (grey diamonds), then injected subcutaneously into syngenic C57BL6 mice (2.5×10^5 cells per mouse). The tumour volume was measured on the 20th day;
Female C57BL6 mice (mean body weight 18 to 20 g) were purchased from Harlan France (Gannat, France). The animals were placed in individual cages at a constant temperature and humidity; food and water were supplied ad libitum. All of the mice underwent a 1 week acclimatization period before commencing the experiments. The in vivo experiments were carried out in accordance with the recommendations of the Centre National de la recherché Scientifique (CNRS, National Centre for Scientific Research).
A suspension of B16F1 cells (2.5×10^5 cells in RPMI 1640 medium) which may or may not have been pre-treated with the cyclopeptide YSNSG (SEQ ID NO: 3) (20 μM) was injected subcutaneously into the left flank of syngenic mice from a different series. The mice were sacrificed on day 20 and the tumour size was measured. The volume of the tumours was determined by the relationship V=½A×B^2 in which A and B respectively represent the largest and the smallest dimension of the tumour (Wald et al).

Another assay concerns u-PA. Description: Zymography in the presence of gelatine and plasminogen, UACC-903 cells. It is filed as cell-based, human. The note with it: cyclopeptide 5 to 20 μM, linear heptapeptide 20 μM. The procedure: (§1) FIG. 14: Effect of YSNSG (SEQ ID NO: 3) cyclopeptide on the secretion of plasminogen activators. The secretion of u-PA (urokinase type plasminogen activator) and t-PA (tissue plasminogen activator) was analyzed by zymography in the presence of gelatine and plasminogen (A) in a medium conditioned by control UACC-903 cells in the absence of peptide (negative control, white bar), on cells treated with linear heptapeptide CNYYSNS (SEQ ID NO: 5) (20 μM) (positive control, black bar) or treated with the cyclopeptide YSNSG (SEQ ID NO: 3) at a concentration varying from 5 μM to 20 μM (grey bars). The conditioned medium was recovered and analyzed as described in the methods.
(§2) To determine the plasminogen activities, conditioned media of UACC-903 cells were analyzed by polyacrylamide gel electrophoresis in the presence of SDS and containing 1 mg/ml of gelatine and 10 μg/ml of plasminogen. After electrophoresis, the gels were incubated overnight at ambient temperature in a 100 mM glycine, 5 mM EDTA, pH 8.0 buffer.

The test system of the next assay is t-PA. The assay is described as above. It is filed as cell-based, human. The note with it: cyclopeptide 5 to 20 μM, linear heptapeptide 20 μM. The procedure:
as §1, §2

The subject of a further assay is TIMP-2. Briefly: Reverse zymography of TIMP secretion, UACC-903 cells. It is filed as cell-based, human. The note with it: cyclopeptide 5 to 20 μM, linear heptapeptide 20 μM. The protocol:
(§3) FIG. 13: Effect of YSNSG (SEQ ID NO: 3) cyclopeptide on secretion of TIMP. The secretion of 3 tissue inhibitors of metalloproteinases (TIMP) was analyzed by reverse zymography (A) in a medium conditioned by control UACC-903 cells in the absence of peptide (negative control, white bar), on cells treated with the linear heptapeptide CNYYSNS (SEQ ID NO: 5) (20 μM) (positive control, black bar) or treated with cyclopeptide YSNSG (SEQ ID NO: 3) at a concentration from 5 μM to 20 μM (grey bars). The conditioned medium was recovered and analyzed as described in the methods.
(§4) The expression of MMP-2 and MMP-9 in a conditioned medium of UACC-903 cells, treated or not treated with synthetic peptides, was analyzed by zymography in the presence of gelatine as described above (Pasco et al, 2000(a)). The secretion of TIMP-2 was analyzed in a conditioned medium of UACC-903 cells by reverse zymography in the presence of gelatine, as described above (Pascal et al, 2000(a)).

A further assay concerns TIMP-1. Described as above. It is filed as cell-based, human. The note with it: conditioned culture medium. The protocol: as §3, §4
In the next assay the test system is TIMP-3. The assay is described as above. The note with it: conditioned culture medium. It is filed as cell-based, human. The protocol:
as §3, §4

Where a SMILES comes first, the peptide text is derived from it.

`NC(=O)CC1NC(=O)C(CO)NC(=O)C(Cc2ccc(O)cc2)NC(=O)CNC(=O)C(CO)NC1=O` (centres unmarked) [cyclopeptide YSNSG, cyclopeptide YSNSG (SEQ ID NO: 3)] (cyclo(GYSNS); configuration not given here): the results for the “inhibited the proliferation of UACC-903 melanoma cells” value in assay [1] (5 μM), in assay [1] (10 μM) and in assay [1] (20 μM) were 27%, 29% and 40%, respectively. Further, the “in vivo tumour growth” value in assay [2] was “inhibited tumour growth”. Besides, in assay [2] (B16F1 cells pre-treated with 20 μM, no re-injection of peptide, C57BL6 mice), the “reduction in tumour volume” value turned out to be 46%. Moreover, in the assay on u-PA, the “secretion of u-PA” value is on record as “dose-dependent reduction”. For the same compound, the “secretion of t-PA” value in the assay with t-PA was “dose-dependent reduction”. Moreover, the “secretion of TIMP-2” value in the assay on TIMP-2 is given as “dose-dependent increase”. The “Secretion of TIMP-1” value in the assay on TIMP-1 was “not modified”. Further, in the assay with TIMP-3, the “Secretion of TIMP-3” value is “not modified”.

In the case of “CNYYSNS (Synthetic linear heptapeptide) [linear peptide NC1 [α3(IV) 185-191], the 7 N-terminal amino acids of the 185-203 domain; positive control, reference compound]”, in assay [1] (linear heptapeptide positive control, concentration not given), the “In vitro proliferation of UACC-903 human melanoma cells, change vs control” value is −45%. The “in vivo tumour growth” value in assay [2] is reported as “inhibited tumour growth”. For the same compound, in the assay on u-PA, the “secretion of u-PA” value is listed as “reduction observed”. Moreover, the “secretion of t-PA” value with t-PA is reported as “reduction observed”. For the same compound, the “secretion of TIMP-2” value in the assay with TIMP-2 was “dose-dependent increase”. Also, the “Secretion of TIMP-1” value with TIMP-1 is given as “not modified”. Also, the “Secretion of TIMP-3” value with TIMP-3 is recorded as “not modified”.
